What was measured:
Sus scrofa [1] = assay: Cardiotoxicity in iv dosed Sus scrofa (pig) assessed as effect on maximum rate of rise of left ventricular pressure administered as infusion; type: toxicity, organism-based, Heart left ventricle; conditions: in vivo
Sus scrofa [2] = assay: Cardiotonic activity in iv dosed Sus scrofa (pig) assessed as change in heart rate administered as infusion; type: functional
Sus scrofa [3] = assay: Cardiotonic activity in iv dosed Sus scrofa (pig) assessed as change in left ventricular filling pressure administered as infusion; type: functional, Heart left ventricle
Sus scrofa [4] = assay: Cardiotoxicity in Sus scrofa (pig) assessed as increase in maximum rate of rise of left ventricular pressure at 2.5 to 25 ug/kg/min administered as 10 min infusion; type: toxicity, organism-based, Heart left ventricle; conditions: in vivo, iv
Sus scrofa [5] = assay: Cardiotonic activity in iv dosed Sus scrofa (pig) assessed as change in left ventricular systolic pressure administered as infusion; type: functional, Heart left ventricle
Sus scrofa [6] = assay: Cardiotoxicity in Sus scrofa (pig) assessed as increase in maximum rate of rise of left ventricular pressure at 0.05 to 0.5 ug/kg/min administered as 10 min infusion; type: toxicity, organism-based, Heart left ventricle; conditions: in vivo, iv

COc1ccc(-c2nc3ccc(C4=NNC(=O)CC4C)cc3[nH]2)cc1 (stereo unspecified) [PIMOBENDAN]
Activity (Sus scrofa [1]): 10%
Activity (Sus scrofa [2]): 10%
Activity (Sus scrofa [3]): -20%
Activity (Sus scrofa [4]): 85%
Activity (Sus scrofa [5]): -5%

COC(=O)C1=C(C)NC(C)=C(C(=O)OCC(C)C)C1c1ccccc1[N+](=O)[O-] (stereo unspecified) [NISOLDIPINE]
Activity (Sus scrofa [6]): 45%

From ChEMBL document CHEMBL3046708, “The effect of pyridazine compounds on the cardiovascular system” (Med Chem Res, 2012)
